Where a SMILES comes first, the peptide text is derived from it. Where no end group is shown, it is not given here. Eth = ethionine
Tests used:
[1] = system: PB1X-9B; assay: Growth on peptides as amino acid source, peptide transport mutant; assay type: cell-based, Saccharomyces cerevisiae; conditions: PBIX-9B; 80 μM peptide in SC medium, 30° C., 72 hrs
Protocol: (§1) In addition, untransformed PB1X-9B, PB1X-9B transformed with plasmid pJP9 encoding the above-described yeast peptide transport gene, PB1X-2AΔ and PB1X-2A, the ptr2^+ parental strain to PB1X-2AΔ strain, were also assayed. Each strain was grown overnight in SC media plus uracil (non-transformed) or minus uracil (transformed) plus amino acids to stationary phase and harvested by centrifugation. Cells were then washed twice with sterile dH2 O and resuspended at 5×10^6 cells/ml. 5 μl of each suspension was applied as a small spot to a 2 ml volume of solid media in a 24 well plate. All peptides were suspended in sterile, deionized water and added to an equal volume of SC medium plus the appropriate amino acids and uracil when required. The medium for each assay thus consisted of SC medium plus or minus uracil supplemented with 80 μM of a specific peptide and auxotrophic requirements minus the amino acid components of the added peptide. The plates were incubated at 30° C. for 72 hrs. and then scored for growth.

[2] = system: PB1X-9B (pJP9); assay: Growth on peptides, mutant transformed with yeast peptide transport gene; assay type: cell-based, Saccharomyces cerevisiae; conditions: for growth on peptide: PBIX-9B (pJP9), 80 μM peptide in SC medium, 30° C., 72 hrs; for growth on peptide (in words): PB1X-9B transformed with pJP9
Protocol: as §1

[3] = system: PB1X-9B (pPTF4); assay: Growth on peptides, mutant transformed with plant gene ATPTR2A; assay type: cell-based, Saccharomyces cerevisiae; conditions: PBIX-9B (pPTF4); 80 μM peptide in SC medium, 30° C., 72 hrs
Protocol: as §1

[4] = system: ATPTR2Ap; assay: Uptake of L-leucyl-L-[3H]leucine and competition, PB1X-9B[pPTF4]
Protocol: The kinetics of ATPTR2A-mediated transport of peptides in yeast was evaluated by transforming pPTF4 into the S. cerevisiae peptide transport mutant, PB1X-9B and measuring the uptake of tritiated Leu-Leu dipeptide.
L-leucyl-L [^3 H]leucine trifluoroacetic acid (TFA) was synthesized by standard solution phase techniques (Naider, F. et al., J. Biol. Chem. 249:9-20 (1974)). Uptake of L-leucyl-L-[H]leucine was performed as by Island, M. D. et al (J. Bacteriol. 169:2132-2136 (1987)), with the following modifications. Cells were grown to late log phase (26×10^7 cells/ml) overnight in SC with 2% glucose, 1 mg/ml allantoin plus amino acids to supplement auxotrophic markers. To induce peptide transport. 5-15 ml from this culture was added to 100 ml fresh medium such that the density was 3.0×10^6 cells/ml. This culture was allowed to grow (approx. 2 hrs.) to a density of 6.0×10^6 cells/ml and then harvested by centrifugation. The pelleted cells were washed twice with 10 ml cold dH2 O and suspended in cold 2% glucose to a final concentration of 2×10^8 cells/ml and incubated at 30° C. for 15 min. 500 μl of cells were then added to an equal volume of reaction mixture (30° C.) and incubated at 30°-C. At 20, 40, 60, 90, and 120 sec. intervals, 190 μl portions were removed, filtered over filters (pore size, 0.45 μm; GN-6; Gelman Sciences, Inc., Ann Arbor, Mich.) and washed 2 times with 5 ml cold, sterile dH2 O and once with 5 ml dH2 O at room temperatures. Filters were placed in scintillation vials with 5 ml of Budget-Solve scintillation cocktail (Research Products International Corp., Mount Prospect, Ill.) and counted (liquid scintillation counter; LS-7000; Beckman Instruments, Inc., Fullerton, Calif.). The final concentration of the components in the uptake assay was 1% glucose, 40 mM sodium citrate-potassium phosphate buffer (pH 5.5), and 1.5×105 M L-leucyl-L-[^3 H]leucine (specific activity, 10 mCi/mmole). Uptake is expressed as nanomoles per mg dry weight.

[5] = system: A. thaliana seedlings; assay: Root assay, toxic peptide plus competitor peptide; assay type: in vivo, Arabidopsis thaliana
Protocol: Approximately 15 A. thaliana seeds were placed in a row at one end of 10 cm plate containing 20 ml of Arabidopsis growth media (Kranz and Kirchheim 1987). The seeds were incubated 3-5 days in the light with the plate set in an upright position. When the roots were approximately 1-2 cm long, sterile paper filter disks were placed immediately in front of the root tips on the right and left side of the plate 2 cm from the edge of the plate. A line was drawn across the plate using the top of the disks as a guide marking zero growth. 5 μl of toxic amino acid analog, toxic peptide, or toxic peptide plus competitor was added to one disk while H2 O was place on the other disk. The plates were incubated for an additional 3-5 days. The average length of the roots was measured from the line and the results expressed as a percentage of control root growth.

[6] = system: PB1X-2AΔ (pDTF1); assay: Growth on peptides, deletion strain transformed with ATPTR2B; assay type: cell-based, Saccharomyces cerevisiae; parameters: key: +: Growth was scored as uniform colony formation; -: negative controls which showed no growth; conditions: PBIX-2AΔ (pDTF1); 80 μM peptide in SC medium, 30° C., 72 hrs
Protocol: as §1, with “Thus, the peptide transport mutant PB1X-9B and deletion strain PB1X-2AΔ transformed with plasmids pPTF4 (ATPTR2A) or pDTF1 (ATPTR2B) were grown on various peptides to assess the specificity of the plant peptide transporter. In” for “In”

[7] = system: S288C; assay: Toxic peptide disk assay, wild type; assay type: cell-based, Saccharomyces cerevisiae; conditions: disk with 0.38 μmoles, lawn of 5×10^6 cells, 30° C., 1 to 2 days, mean ± standard error
Protocol: (§2) Since ptr mutants are deficient in peptide transport, they are unable to take up toxic peptides. This inability renders such mutants resistant to the toxic effect of the peptides. In order to determine whether the polynucleotides of the present invention could restore toxic peptide sensitivity to ptr2 mutants, the sensitivity of plasmid-transformed cells was determined. Sensitivity to toxic amino acids and peptides was measured as described by Island, M. D. et al. (J. Bacteriol. 169:2132-2136 (1987)). Briefly, a filter disk containing 0.38 μmoles of the toxic compound was placed on a lawn containing 5×10^6 cells and the plate incubated at 30° C. for 1 to 2 days. Resulting halos were measured across their diameter. The toxic dipeptides Leu-Eth, Ala-Eth, Leu-F-Phe and Oxalysine were synthesized by standard solution phase techniques (Naider, F. et al., J. Biol. Chem. 249:9-20 (1974). The results of this experiment are shown in Table 2 (values are the mean of the diameters of the observed zone of inhibition in millimeters±standard error of the mean of at least two independent experiments).

[8] = system: PB1X-9B; assay: Toxic peptide disk assay, peptide transport mutant; assay type: cell-based, Saccharomyces cerevisiae; conditions: for diameter of zone of inhibition: disk with 0.38 μmoles, lawn of 5×10^6 cells, 30° C., 1 to 2 days, mean ± standard error
Protocol: as §2

[9] = system: PB1X-9B (pJP9); assay: Toxic peptide disk assay, mutant with yeast peptide transport gene; assay type: cell-based, Saccharomyces cerevisiae; conditions: disk with 0.38 μmoles, lawn of 5×10^6 cells, 30° C., 1 to 2 days, mean ± standard error
Protocol: as §2

[10] = system: PB1X-9B (pPTF4); assay: Toxic peptide disk assay, mutant with plant gene ATPTR2A; assay type: cell-based, Saccharomyces cerevisiae; conditions: for diameter of zone of inhibition: disk with 0.38 μmoles, lawn of 5×10^6 cells, 30° C., 1 to 2 days, mean ± standard error
Protocol: as §2

[11] = system: S. cerevisiae strains tested; assay: Toxic peptide disk assay, statements covering several strains; assay type: cell-based, Saccharomyces cerevisiae; conditions: for sensitivity to toxic peptide: all strains tested
Protocol: as §2

[12] = PB1X-9B[pPTF4], pH 5.5, dileucine and leucine at 100-fold

| Molecule | growth on peptide [1] | growth on peptide [2] | growth on peptide [3] | diameter of zone of inhibition [7] [millimeters] | diameter of zone of inhibition [8] [millimeters] | diameter of zone of inhibition [9] [millimeters] | diameter of zone of inhibition [10] [millimeters] | other results |
| --- | --- | --- | --- | --- | --- | --- | --- | --- |
| CC(C)C[C@H](NC(=O)[C@@H](N)Cc1c[nH]cn1)C(=O)O [His-Leu] (H-His-Leu-OH) | - | + | + |  |  |  |  |  |
| CC(C)C[C@H](NC(=O)[C@@H](N)CC(C)C)C(=O)O [Leu-Leu, L-leucyl-L-leucine] | - | + | + |  |  |  |  | competition for uptake of [3H]-dileucine [4, 12]: inhibited |
| CC(C)C[C@H](NC(=O)[C@@H](N)CCCCN)C(=O)O [Lys-Leu, L-lysyl-L-leucine] (H-Lys-Leu-OH) | - | + | + |  |  |  |  |  |
| CSCC[C@H](N)C(=O)O [Met] |  |  |  |  |  |  |  | reversal of toxicity by competitor (in words) ([5]; toxic peptide Ala-Eth): unable to reverse the inhibition; root growth with toxic peptide plus competitor ([5]; toxic peptide Ala-Eth): 0 percentage of control root gro; reversal of toxicity by competitor (in words) ([5]; toxic peptide Leu-Eth): unable to reverse the inhibition; root growth with toxic peptide plus competitor ([5]; toxic peptide Leu-Eth): 0 percentage of control root gro |
| CC(C)C[C@H](N)C(=O)O [leucine] |  |  |  |  |  |  |  | competition for uptake of [3H]-dileucine ([4]; 3 h): no effect; competition for uptake of [3H]-dileucine [4, 12]: did not reduce uptake |
| Ala-Ala-Leu: tripeptide growth substrate (AAL) | - | + | + |  |  |  |  |  |
| Gly-Leu-Gly-Leu: SEQ ID NO:6 (GLGL) | - | - | - |  |  |  |  | growth on peptide (in words) [2]: showed growth on all peptides except |
| Lys-Ala-Ala: tripeptide growth substrate (KAA) | - | + | + |  |  |  |  | growth on peptide [6]: + |
| Lys-Leu-Ala-Eth: ethionine-containing peptide of four residues |  |  |  | 0 | 0 | 0 | 0 | sensitivity to toxic peptide [11]: None of the strains tested were sensitive |
| Lys-Leu-Leu-Ala-Eth: ethionine-containing peptide, SEQ ID NO:13 (KLLA-Eth) |  |  |  | 0 | 0 | 0 | 0 | sensitivity to toxic peptide [11]: None of the strains tested were sensitive |
| Lys-Leu-Leu-Eth: ethionine-containing peptide of four residues |  |  |  | 0 | 0 | 0 | 0 | sensitivity to toxic peptide [11]: None of the strains tested were sensitive |
| Lys-Leu-Leu-Leu-Eth: ethionine-containing peptide, SEQ ID NO:14 (KLLL-Eth) |  |  |  | 0 | 0 | 0 | 0 | sensitivity to toxic peptide [11]: None of the strains tested were sensitive |
| Thr-Pro-Arg-Lys: SEQ ID NO:7 (TPRK) | - | - | - |  |  |  |  | growth on peptide (in words) [2]: showed growth on all peptides except; growth on peptide [6]: - |
| Trp-His-Trp-Leu-Gln-Leu: SEQ ID NO:9 (WHWLQL) | - | - | - |  |  |  |  | growth on peptide (in words) [2]: showed growth on all peptides except; growth on peptide [6]: - |
| fluorophenylalanine [F-Phe] |  |  |  | 25.0 ± 4.0 | 14.0 ± 1.0 | 20.0 ± 0.0 | 19.5 ± 0.5 | sensitivity or resistance to toxic compound [8]: sensitive; sensitivity or resistance to toxic compound [10]: sensitive; sensitivity to toxic compound ([11]; wild type (S288C) and transformants): less sensitive |
